System: HCV replicon in the 5-15 subline of Huh-7 cells
Experiment: Replicon ELISA (HCV replicon assay)
Assay type: cell-based, hepatitis C virus (HCV 1b)
Conditions: Hepatitis C virus; Huh-7 5-15 cells, HCV 1b replicon, 72 hours, NS4a ELISA
Excerpt: The 5-15 subline of Huh-7 cells (Lohmann, V., Korner, F., Koch, J-O., Herian, U., Theilmann, L. & Bartenschlager, R., 1999, Science, 2, pp 110-113) were used for these assays. These are human hepatocellular carcinoma cells stably transfected with an HCV replicon comprising the majority of the HCV 1b genome with the addition of a selectable marker gene, but lacking the genes encoding for all structural proteins and non-structural protein (NS) 2. The replicon RNA is self-replicating and fully functional viral proteins are translated from it. A quantifiable and specific reduction of expressed protein in the presence of a drug can be used as a measure of replicon inhibition.
Stock solutions of compound samples were formulated to 40 mM in DMSO. […]
ELISA step: Growth medium was removed from the plate and the cell monolayers were washed gently once with phosphate buffered saline (PBS) prior to fixing with a 1:1 mix of acetone:methanol for 5 minutes. […] The reaction was stopped by the addition of 25 μl per well of 2M sulphuric acid and the plates were read spectrophotometrically at 490 nm. […]
The absorbance values from all compound-free wells that had received both primary and secondary antibodies were averaged to obtain a positive control value. The mean absorbance value from the compound-free wells that had not received the primary antibody was used to provide the negative (background) control value. […]

Structure (SMILES)	IC50 [µM]
C[C@H](NP(=O)(OC[C@@H]1C[C@@H](O)[C@H](n2ccc(N)nc2=O)O1)Oc1ccccc1)C(=O)OCc1ccccc1 (some centres unmarked) [Example 3]	< 200
COC(=O)[C@H](C)NP(=O)(OC[C@@H]1C[C@@H](O)[C@H](n2ccc(N)nc2=O)O1)Oc1ccccc1 (some centres unmarked) [Example 2]	< 200
